In the supplement of paper PMC10307832:

Key:
Assay in all cases: relative viability (nuclei count vs DMSO), 5 days (fraction); higher = more cells survive
[1] = compound: COC1=CC=C(C=C1)CN2C=CC3=C2C=C(C=C3)C(=O)NO + O=C(c1cc(Cc2n[nH]c(=O)c3ccccc23)ccc1F)N1CCN(C(=O)C2CC2)CC1 [Olaparib] (partner 8 µM)
How it was run: (§1)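 Relative viability equals treated-well nuclei counts divided by vehicle-well nuclei counts. Counts came from 4× images of lung cancer cell lines grown in 1536-well plates for 5 days after pin-tool dosing on the day after seeding. Dosing used one drug alone or a fixed anchor-drug dose plus five library-drug doses (not always all listed) in √10 steps, and values are medians of duplicate plates.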

Veliparib + Palbociclib = compound: C[C@]1(c2nc3c(C(N)=O)cccc3[nH]2)CCCN1 [Veliparib] + CC(=O)c1c(C)c2cnc(Nc3ccc(N4CCNCC4)cn3)nc2n(C2CCCC2)c1=O [Palbociclib] (partner 0.5 µM)
How it was run: as §1

Veliparib + Navitoclax = compound: C[C@]1(c2nc3c(C(N)=O)cccc3[nH]2)CCCN1 [Veliparib] + CC1(C)CCC(c2ccc(Cl)cc2)=C(CN2CCN(c3ccc(C(=O)NS(=O)(=O)c4ccc(N[C@H](CCN5CCOCC5)CSc5ccccc5)c(S(=O)(=O)C(F)(F)F)c4)cc3)CC2)C1 [Navitoclax] (partner 0.5 µM)
How it was run: as §1

Veliparib + Lapatinib = compound: C[C@]1(c2nc3c(C(N)=O)cccc3[nH]2)CCCN1 [Veliparib] + CS(=O)(=O)CCNCc1ccc(-c2ccc3ncnc(Nc4ccc(OCc5cccc(F)c5)c(Cl)c4)c3c2)o1 [Lapatinib] (partner 2 µM)
How it was run: as §1

SW 1573
relative viability ([1]; first compound 0.253 µM): 0.543 | relative viability ([1]; first compound 0.8 µM): 0.465 | relative viability ([1]; first compound 2.53 µM): 0.432 | relative viability ([1]; first compound 8 µM): 0.334 | relative viability (Veliparib + Palbociclib; first compound 0.06325 µM): 0.337 | relative viability (Veliparib + Palbociclib; first compound 0.2 µM): 0.431 | relative viability (Veliparib + Palbociclib; first compound 0.6325 µM): 0.382 | relative viability (Veliparib + Palbociclib; first compound 2 µM): 0.445 | relative viability (Veliparib + Navitoclax; first compound 0.02 µM): 1.02 | relative viability (Veliparib + Navitoclax; first compound 0.06325 µM): 0.934 | relative viability (Veliparib + Navitoclax; first compound 0.2 µM): 1.1 | relative viability (Veliparib + Navitoclax; first compound 0.6325 µM): 0.736 | relative viability (Veliparib + Navitoclax; first compound 2 µM): 0.93 | relative viability (Veliparib + Lapatinib; first compound 0.02 µM): 1.04 | relative viability (Veliparib + Lapatinib; first compound 0.06325 µM): 1.02 | relative viability (Veliparib + Lapatinib; first compound 0.2 µM): 0.929 | relative viability (Veliparib + Lapatinib; first compound 0.6325 µM): 1.05 | relative viability (Veliparib + Lapatinib; first compound 2 µM): 1.04
